Results: article PMC9884808, “Pharmacokinetics, tissue distribution, and antitumor activity of a novel compound, NY-2, in non-small cell lung cancer” (Frontiers in Pharmacology, 2023)
Marks after values point to notes of the source that are not given here.

Key:
[1] = Acute toxicity assay in KM mice; format: in vivo; settings: tail vein injection 1000 mg/kg in saline, 10 days observation, 6 animals per group
Procedure: An acute toxicity assay was assessed in KM mice by tail vein injection of NY-2 dissolved in saline at a dose of 1000 mg/kg (6 animals per group).

[2] = Metabolic stability, liver microsome incubation; format: in vitro ADME; settings: 100 μM
Procedure: Rat liver microsomes (RLMS) and human liver microsomes (HLMs) were purchased from RILD and BioIVT, respectively.The metabolic stability of 100 μm Zldi-8 and NY-2 in rat and human liver microsomes was investigated. Zldi-8/NY-2(100 ΜM)10 μl, mgcl210 ΜL, RLMs/HLMs 62.5 μl, PBS (ph 7.4)117.5 μl, NADPH 50 ΜL were added to the metabolic incubation system in ice bath, respectively.After adding in sequence, the incubation systems were pre-incubated for 3 min in a 37 ° C incubator, and then NADPH was added to start the reaction, and the incubation systems were removed at 0 min, 5 min, 10 min, 20 min, 30 min, 60 min, 90 min, 50 ΜL incubation solution was taken out respectively, and the reaction was stopped by rapidly adding equal volume of ice acetonitrile solution containing propranolol hydrochloride (internal standard) , vortex for 3 min, centrifugation at 4 ° C, 9500 rpm for 10 min, the content of the supernatant was determined by HPLC.The experiment was repeated three times in parallel.

A549 cells [3] = experiment: LDH activity assay; format: cell-based, human; settings: 48 h, increasing concentrations, vs control
Procedure: Cell viability was measured by the MTT assay. HCT116, HL7702, A549, H1993, HCC827, and H460 cells were dispensed into 96-well plates at a density of 1 × 10^5 cells/mL. After 24–48 h incubation, cells were treated with the compounds at different concentrations for the indicated periods. An assay kit (WLA073, Wanlei Co., Liaoning, China), was used according to the manufacturer’s instructions to measure LDH activity, The absorbance at 450 nm was measured with a microplate reader (Elx-800, Bio-Rad, China).

A549 cells [4] = experiment: Apoptosis, annexin-V/PI double staining; format: cell-based, human; settings: 48 h, control 0.86 ± .05%
Procedure: For the apoptosis assay, cells were seeded into 6-well plates at 1× 10^5 cells per well, and after attachment for 4–6 h, they were incubated with different concentration of NY-2 for 48 h. After washing with 1×PBS, the cells were stained with Hoechst 33342 (5 μg/mL, 1 mL per well, C1022, Beyotime Biotechnology, China) for 20 min in a 37°C incubator followed by two washes with PBS. The number of apoptotic cells was counted under an inverted fluorescence microscope (Olympus, Japan). Apoptosis was also determined using an annexin V-FITC apoptosis detection kit (ABS50001, Absin Bioscience Inc., Shanghai, China). Cells were plated in 100 mm Petri dishes at a density of 1 × 10^6 cells/dish, after 4–6 h for attachment, cells were incubated with different concentrations of NY-2 for 48 h. For each sample, cells were harvested by trypsin digestion without EDTA and washed with 1 × PBS. Cells were resuspended in 300 μL of binding buffer, and 5 μL of annexin V-FITC solution were added and incubated at room temperature in the dark for 15 min, followed by the addition of 5 μL of propidium iodide (PI) solution. The sample staining was assessed by flow cytometry (BD Co., United States).

A549 cells [5] = experiment: Transwell invasion assay; format: cell-based, human; settings: 48 h
Procedure: For the transwell invasion assay, Matrigel (50 mg/L) was diluted 1:8 with serum-free medium, and 60 μL of diluted Matrigel was pipetted into each transwell (Corning, NY, United States) and incubated overnight. The upper chamber was seeded with 1× 10^5 cells that had been starved for 24 h in 100 µL of serum-free medium, and 700 µL of medium with 10% FBS was added to the lower compartment. After cultivation for 48 h at 37°C, the cells in the upper chamber were removed with a cotton swab, and the cells on the lower surface of the filter were fixed with methanol for 20 min and stained with 0.1% crystal violet after drying. Excess stain was eluted with 33% acetic acid, and the absorbance was measured at 490 nm.

A549 cells [6] = experiment: Wound-healing migration assay; format: cell-based, human; settings: 48 h
Procedure: A wound-healing assay was used to assess the migration ability. Cells were seeded into 6-well plates at 3 × 10^5 cells per well. At about 90% confluence, uniform scratches were made in the monolayer using a sterile 200 μL pipet tip. After washing with phosphate-buffered saline (PBS), the cells were cultured in 2% FBS medium and photos were taken at 0 and 48 h. The rate of cell migration was determined by measuring the decrease in gap with compared to the initial gap at 0 h. Readings were performed independently in triplicate.

A549 cells [7] = settings: 28 days
Procedure: The experimental groups included the normal (no tumor cells, vehicle) group, the model (tumor cells, vehicle) group, NY-2-treated, and paclitaxel-treated groups, with six mice in each group. After 7 days for adaptation, 200 µL of A549 cells (2× 10^6 cells/mice) in serum-free medium were injected into the tail vein except for those in the normal group. Drug or vehicle administration via tail vein was started on the next day. The normal group and model group were given the same amount of sterile water containing 1% DMSO and 1% Tween as vehicle control. […] Injections were done every other day. The general conditions of the nude mice, with regard to activity and food ingestion, were observed every day, and their body weight was measured every other day.
KM mice were treated with ZLDI-8 or NY-2 by tail vein injection (6 mg/kg) for 7 days, then the mice were euthanized and liver and kidney tissues were removed and sectioned. For the experiment with BALB/c nude mice, the tail vein injections of NY-2 (6 mg/kg) were continued for 28 days, and the lungs, tumor, heart, liver, and kidney were removed. […] Sections for staining were dewaxed with xylene and then rehydrated, and hematoxylin-eosin staining was performed, after which the sections were again dehydrated in ethanol and cleared with xylene before being mounted on a slide, cover-slipped and examined microscopically. The remainder of the tumors and tissues was frozen in liquid nitrogen for other studies.

[8] = nude mice, NY-2 6 mg/kg, paclitaxel 1 mg/kg, n=6, mean ± SEM

For `Cc1c(C=C2C(=O)NC(=S)NC2=O)c2ccccc2n1CCOc1ccc(F)cc1` [NY-2], the “deaths in acute toxicity assay” value [1] was “no deaths occurred”, the “residual level (metabolic stability)” value ([2]; human liver microsomes) was “greater than that of ZLDI-8” and the “residual level (metabolic stability)” value ([2]; rat liver microsomes) was “greater than that of ZLDI-8”. The “LDH activity in cell culture supernatants” value (A549 cells [3]) was “increased in a concentration-dependent manner”, the “percentage of A549 cells in apoptosis” value (A549 cells [4]; 5 μM) was 5.45 ± 3.28% and the “percentage of A549 cells in apoptosis” value (A549 cells [4]; 10 μM) was 20.29 ± 3.11%. For the same molecule, the “invasion of A549 cells” value (A549 cells [5]) was “inhibit the invasion and migration of A549 cells in a concentration-dependent manner”, the “migration of A549 cells” value (A549 cells [6]) was “inhibit the invasion and migration of A549 cells in a concentration-dependent manner” and the “Body weight before dissection” value (A549 cells [7]; nude mice with A549 lung metastasis, tail vein every other day, NY-2 6 mg/kg, paclitaxel 1 mg/kg, n=6, mean ± SEM) was 23.48 ± 0.50 g. For the same molecule, the “Heart as a proportion of body weight” value (A549 cells [7]; [8]) was 0.56 ± 0.03 10^-2, the “Kidney as a proportion of body weight” value (A549 cells [7]; [8]) was 1.74 ± 0.03 10^-2 and the “Liver as a proportion of body weight” value (A549 cells [7]; [8]) was 5.45 ± 0.05# 10^-2. The “Lung as a proportion of body weight” value (A549 cells [7]; [8]) was 0.67 ± 0.03 10^-2, the “Quality of the heart” value (A549 cells [7]; [8]) was 0.13 ± 0.01 g and the “Quality of the kidney” value (A549 cells [7]; [8]) was 0.41 ± 0.01 g. For the same molecule, the “Quality of the liver” value (A549 cells [7]; [8]) was 1.28 ± 0.04 g, the “Quality of the lung” value (A549 cells [7]; [8]) was 0.16 ± 0.01 g and the “average percentage of metastatic lung surface area to the total lung area” value (A549 cells [7]; nude mice, A549 tail vein, NY-2 6 mg/kg every other day, model group 12.91 ± 11.93%) was 0.25 ± .62%. The “infiltration of A549 cells in the lung tissue (H&E)” value (A549 cells [7]; nude mice, NY-2 6 mg/kg, paclitaxel 1 mg/kg) was “no infiltration of A549 cells in the lung tissue” and the “toxic effects on the heart, liver or kidney (H&E)” value (A549 cells [7]; nude mice, tail vein injection 6 mg/kg) was “no obvious toxic effects”.
